Test results taken from PubChem BioAssay AID687000 (Broad Institute, 2013).
Where “and” joins values, the source holds several entries; their conditions need not be identical. Identical values can stand only once. Calls of active or inactive are those of the source.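 Rule for the calls: active = fitted dose curve reaches 40% lysis signal rise at or below the highest valid concentration tested for that sample; inconclusive = flat fit between 30% and 70%, or poor curve fit; inactive = signal falls, stays flat within 30%, or no crossing.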

system: C. neoformans lysis, adenylate kinase release luminescence, 4 h; experiment: inducers of Cryptococcus neoformans cell lysis, dose response, AK release luminescence, cherry-picks (AID 687000)

**Q.** How did the AC40 turn out when COC(=O)C1=C(C)N(Cc2ccc(Cl)cc2)C(=S)NC1c1cccc(OC)c1 (stereo not drawn) was run?
**A.** 3.04 µM

**Q.** C[C@@H]1CCCCO[C@H](CN(C)S(=O)(=O)c2cccs2)[C@@H](C)CN([C@@H](C)CO)C(=O)c2cc(NC(=O)CCC(F)(F)F)ccc2O1 was tested. Which AC40 did it give?
**A.** > 15 µM (inactive)

**Q.** How did the AC40 turn out when CC(C)NC(=O)Nc1ccc2c(c1)C(=O)N([C@@H](C)CO)C[C@@H](C)[C@@H](CN(C)C(=O)NC(C)C)OCCCC[C@@H](C)O2 was run?
**A.** > 15 µM (inactive)

**Q.** For COC(=O)C1=C(C)N(C)C(=S)NC1c1ccccc1 (stereo not drawn), which AC40 is on record?
**A.** > 26 µM (inactive)

**Q.** For S=C(Nc1ccc(Cl)cc1Cl)Nc1ccccc1Oc1ccccc1, which AC40 is on record?
**A.** 3.3 µM

**Q.** Fc1ccccc1NC(=S)NCCc1cccc(Cl)c1 was tested. Which AC40 did it give?
**A.** 3.27 µM

**Q.** How did the AC40 turn out when CCOc1ccc(CNC(=S)NCc2ccc(OCC)cc2)cc1 was run?
**A.** > 15 µM (inactive)

**Q.** For COC(=O)C1=C(C)N(Cc2ccc(F)cc2)C(=S)NC1c1ccccc1 (stereo not drawn), which AC40 is on record?
**A.** 2.68 µM

**Q.** How did the AC40 turn out when O=C(CSc1ncnc2c1cnn2-c1cccc(Cl)c1)NCC1CCCO1 (stereo not drawn) was run?
**A.** > 15 µM (inactive)

**Q.** For C[C@H]1CN([C@@H](C)CO)C(=O)Cc2cc(NS(C)(=O)=O)ccc2O[C@@H]1CN(C)Cc1ccc(Cl)c(Cl)c1, which AC40 is on record?
**A.** > 15 µM (inactive)

**Q.** With Cc1cccc(C)c1NC(=O)C1CCCN1C(=O)NCc1ccccc1 (stereo not drawn) as the compound, how does the AC40 read?
**A.** > 15 µM (inactive)

**Q.** With COC(=O)C1=C(C)N(Cc2ccccc2)C(=S)NC1c1ccc(Br)cc1 (stereo not drawn) as the compound, how does the AC40 read?
**A.** 2.58 µM

**Q.** How did the AC40 turn out when COc1ccc(NC(=S)NCc2ccc(Cl)cc2)c(OC)c1 was run?
**A.** 4.16 µM

**Q.** Which AC40 does the source give for CCNC(=O)C[C@H]1CC[C@H](NC(=O)NC2CCCCC2)[C@@H](CO)O1 here?
**A.** > 15 µM (inactive)

**Q.** How did the AC40 turn out when CNC[C@@H]1OCCCC[C@@H](C)Oc2ccc(NC(=O)Nc3ccc4c(c3)OCO4)cc2C(=O)N([C@H](C)CO)C[C@@H]1C was run?
**A.** > 15 µM (inactive)

**Q.** Which AC40 does the source give for CCN(Cc1ccccc1)C(=O)COc1ccccc1 here?
**A.** > 15 µM (inactive)

**Q.** Which AC40 does the source give for COC(=O)C1=C(C)N(Cc2ccc(Cl)cc2)C(=S)NC1c1cccc(F)c1 (stereo not drawn) here?
**A.** 13.1 µM

**Q.** Which AC40 does the source give for Cc1cc(C(=O)NC(=S)Nc2ccccc2N2CCOCC2)ccc1[N+](=O)[O-] here?
**A.** 4.95 µM

**Q.** CC=Cc1ccc2n(c1=O)C[C@@H]1[C@@H](CO)[C@H](C(=O)N3CCc4ccccc4C3)N(C(=O)C3CC3)[C@H]21 (mixture of isomers) was tested. Which AC40 did it give?
**A.** > 15 µM (inactive)

**Q.** C[C@@H]1CN([C@H](C)CO)C(=O)c2cc(C3=CCCCC3)cnc2O[C@H]1CN(C)C(=O)Cc1cccnc1 was tested. Which AC40 did it give?
**A.** > 15 µM (inactive)

**Q.** How did the AC40 turn out when C[C@@H]1CN([C@@H](C)CO)C(=O)CCCn2nncc2CO[C@H]1CN(C)C(=O)Oc1cccc2ccccc12 was run?
**A.** > 15 µM (inactive)

**Q.** With COC(=O)C1=C(C)N(CC(C)C)C(=S)NC1c1ccc(-c2ccccc2)cc1 (stereo not drawn) as the compound, how does the AC40 read?
**A.** > 15 µM (inactive) and 1.4 µM

**Q.** O=C(NC(=S)Nc1ccc(Br)cc1)C1CCC1 was tested. Which AC40 did it give?
**A.** 1.05 µM

**Q.** For COc1cccc(NC(=S)NC(=O)Cc2ccc(Cl)cc2)c1, which AC40 is on record?
**A.** 1.03 µM

**Q.** How did the AC40 turn out when COC(=O)C1=C(C)N(Cc2ccccc2)C(=S)NC1c1ccc(Cl)cc1 (stereo not drawn) was run?
**A.** 2.45 µM

**Q.** With Cc1cccc2sc(N3CCN(C(=O)c4cccs4)CC3)nc12 as the compound, how does the AC40 read?
**A.** > 15 µM (inactive)

**Q.** How did the AC40 turn out when COC(=O)C1=C(C)N(Cc2ccc(Cl)cc2)C(=S)NC1c1cccc(Cl)c1 (stereo not drawn) was run?
**A.** 2.95 µM

**Q.** How did the AC40 turn out when COc1ccccc1NC(=S)NCc1ccccc1Cl was run?
**A.** 7.43 µM

**Q.** Which AC40 does the source give for O=C(Nc1ccccc1N1CCOCC1)c1cccc([N+](=O)[O-])c1 here?
**A.** > 7.5 µM (inactive)

**Q.** Cc1ccc(C)c(NC(=O)C2(C)CCCN2C(=O)C(C)C)c1 (stereo not drawn) was tested. Which AC40 did it give?
**A.** 7.4 µM

**Q.** For O=C(NC(=S)Nc1ccccc1N1CCOCC1)c1ccc(Br)cc1, which AC40 is on record?
**A.** > 15 µM (inactive)

**Q.** With COc1ccc(N2CCN(C(=O)Cc3cccs3)CC2)cc1 as the compound, how does the AC40 read?
**A.** > 15 µM (inactive)

**Q.** Which AC40 does the source give for Cc1ccccc1NC(=O)C(=O)NCCCN1CCCC1=O here?
**A.** > 15 µM (inactive)

**Q.** How did the AC40 turn out when COc1ccc(CN(C)C[C@H]2Oc3ccc(NC(=O)Nc4ccc(F)cc4)cc3CC(=O)N([C@@H](C)CO)C[C@@H]2C)cc1 was run?
**A.** > 16 µM (inactive)

**Q.** For O=C(Cc1ccccc1)N[C@H]1C=C[C@@H](CC(=O)N2CCOCC2)O[C@@H]1CO, which AC40 is on record?
**A.** 4.91 µM

**Q.** COC(=O)C1=C(C)N(Cc2ccccc2)C(=S)NC1c1cccc(Br)c1 (stereo not drawn) was tested. Which AC40 did it give?
**A.** 3.56 µM and > 15 µM (inactive)

**Q.** With CCCCN1C(=S)NC[C@@H]1Cc1ccccc1 as the compound, how does the AC40 read?
**A.** 5.11 µM

**Q.** With COc1ccccc1NC(=S)NCc1ccc(Cl)cc1 as the compound, how does the AC40 read?
**A.** 2.19 µM

**Q.** For C[C@@H]1CCCCO[C@@H](CN(C)C(=O)CCCN(C)C)[C@@H](C)CN([C@H](C)CO)C(=O)c2cc(NC(=O)Cc3ccccc3)ccc2O1, which AC40 is on record?
**A.** 14.8 µM

**Q.** With COC(=O)C1=C(C)N(Cc2ccccc2)C(=S)NC1c1cccc(OC)c1 (stereo not drawn) as the compound, how does the AC40 read?
**A.** > 15 µM (inactive) and > 16 µM (inactive)

**Q.** How did the AC40 turn out when COC(=O)C1=C(C)N(Cc2ccc(F)cc2)C(=S)NC1c1cccc(Br)c1 (stereo not drawn) was run?
**A.** 6.51 µM

**Q.** For COC(=O)C1=C(C)N(Cc2ccc(Cl)cc2)C(=S)NC1c1ccc(Br)cc1 (stereo not drawn), which AC40 is on record?
**A.** 0.781 µM

**Q.** With C[C@H]1CN([C@@H](C)CO)C(=O)Cc2cc(N(C)C)ccc2O[C@@H]1CN(C)C(=O)Nc1ccc(C(F)(F)F)cc1 as the compound, how does the AC40 read?
**A.** > 15 µM (inactive)
